Reference: patent US9623016B2, “Antibacterial compounds” (Emergent Virology LLC, priority 2013, dated 2017)
Where two headings read alike, the source gives them in different places.

What was measured:
S. aureus (USA300) [1] = assay: Minimum Inhibitory Concentration (MIC); type: cell-based
Procedure: (§1) The MIC assay is a technique used to determine the lowest concentration of a particular antibiotic needed to inhibit visible growth of bacteria. In this method, two fold serial dilutions of the compound were prepared in broth media. An inoculum of overnight bacterial cultures will be prepared in the same broth medium. The serial dilution tubes will be inoculated with 0.025 ml of undiluted over-night culture (1:100), a 1×10-2 dilution (1:10,000), or a 1×10-4 dilution (1:1,000,000) of bacterial suspension. Results were recorded after 24 hour incubation at 35° C. without shaking by measuring OD600. The MIC is determined by the lowest concentration of compound where no growth is visible.

E. coli (WT) = test system: E. coli (WT)
Procedure: as §1

B. subtilis = assay: Minimum Bactericidal Concentration (MBC); type: cell-based
Procedure: (§2) MBC is the lowest concentration of compound required to kill an organism. […] In the case of small colony variants, growth might not occur earlier than 48 hours.

P. aeruginosa 4858 = assay: Minimum Bactericidal Concentration (MBC); type: cell-based
Procedure: as §2

S. aureus (8324-5) = assay: Minimum Bactericidal Concentration (MBC); type: cell-based
Procedure: as §2

S. aureus (Col) = assay: Minimum Bactericidal Concentration (MBC); type: cell-based
Procedure: as §2

S. aureus (USA300) [2] = assay: Minimum Bactericidal Concentration (MBC); type: cell-based
Procedure: as §2

S. aureus = assay: Minimum Bactericidal Concentration (MBC); type: cell-based; conditions: UV-4B
Procedure: as §2

[3] = test system: Staphylococcus aureus USA300; conditions: 200 mg/kg UV-4B orally TID for 10 days, from 3 days before IP challenge; water control 30%
Procedure: The challenge inoculum included 6.13e4 cfu USA300+3% Hog mucin which causes bacteremia/sepsis within 24-72 h. […] The mice used were 6-8 week old female BALB/c mice in groups of 10. One group of 5 mice was also included to examine the potential toxicity of 3% hog mucin. Endpoint was day 10 post infection, death, or euthanasia Animals displaying severe illness as determined by >30% weight loss, extreme lethargy, or paralysis were euthanized. Observation included daily weight, health checks, and temperatures starting with the initiation of dosing until 10 days post challenge.

[4] = test system: S. aureus USA 300 alpha toxin; conditions: 3 h incubation; hemolysis of 2% rabbit RBC, OD416 nm; FIG. 4
Procedure: • 1. Grow USA300 in MHA plate O/N • 2. Swab bacteria culture from plate and re-suspend in 2 ml PBS • 3. Spin and discard sup. • 4. Wash with 2 ml of PBS. • 5. Re-suspend in 2 ml LB. • 6. […] Add inoculum (make two different inoculum size: 1 and 1:10 in LB). […] Incubate at 370 C for 3 h • 11. Read growth OD600 (T3). • 12. Perform alpha hemolytic assay by using 2% rabbit RBC. Read OD416 nm (T3 hemolysis)

`COCCCCCCCCCN1C[C@H](O)[C@@H](O)[C@H](O)[C@H]1CO.Cl` [UV-4B, hydrochloric acid salt of N-(9-Methoxynonyl)deoxynojirimycin] was tested, and the MIC (S. aureus (USA300) [1]; Table 3, two independent tests) was 2.5 mg/mL, the MIC (S. aureus (USA300) [1]; Table 4) was 0.0625 mg/mL and the “growth (OD600)” value (S. aureus (USA300) [1]; Table 4, 0.02 mg/ml) was “+ (+ OD600 <0.05)”. For the same compound, the “growth (OD600)” value (S. aureus (USA300) [1]; Table 4, 0.04 mg/ml) was “+ (+ OD600 <0.05)”, the “growth (OD600)” value (S. aureus (USA300) [1]; Table 4, 0.08 mg/ml) was “+ (+ OD600 <0.05)” and the “growth (OD600)” value (S. aureus (USA300) [1]; Table 4, 0.16 mg/ml) was “+ (+ OD600 <0.05)”. For the same compound, the “growth (OD600)” value (S. aureus (USA300) [1]; Table 4, 0.31 mg/ml) was “+ (+ OD600 <0.05)”, the “growth (OD600)” value (S. aureus (USA300) [1]; Table 4, 0.63 mg/ml) was “− (− OD600 >0.05)” and the “growth (OD600)” value (S. aureus (USA300) [1]; Table 4, 2.50 mg/ml) was “− (− OD600 >0.05)”. The “growth (OD600)” value (S. aureus (USA300) [1]; Table 4, 5 mg/ml) was “− (− OD600 >0.05)”, the “growth (OD600)” value (S. aureus (USA300) [1]; Table 4, 10 mg/ml) was “− (− OD600 >0.05)” and the “growth (OD600)” value (S. aureus (USA300) [1]; Table 4, 20 mg/ml) was “− (− OD600 >0.05)”. For the same compound, the visible growth (S. aureus (USA300) [1]; UV-4B 0.04 mg/ml) was “+”, the visible growth (S. aureus (USA300) [1]; UV-4B 0.08 mg/ml) was “+” and the visible growth (S. aureus (USA300) [1]; UV-4B 0.16 mg/ml) was “+”. For the same compound, the visible growth (S. aureus (USA300) [1]; UV-4B 0.31 mg/ml) was “+”, the visible growth (S. aureus (USA300) [1]; UV-4B 0.63 mg/ml) was “+” and the visible growth (S. aureus (USA300) [1]; UV-4B 2.50 mg/ml) was “−”. For the same compound, the visible growth (S. aureus (USA300) [1]; UV-4B 5 mg/ml) was “−”, the visible growth (S. aureus (USA300) [1]; UV-4B 10 mg/ml) was “−” and the visible growth (S. aureus (USA300) [1]; UV-4B 20 mg/ml) was “−”. For the same compound, the MIC (E. coli (WT); Table 3) was 5 mg/mL, the visible growth (E. coli (WT); UV-4B 0.02 mg/ml) was “+” and the visible growth (E. coli (WT); UV-4B 0.04 mg/ml) was “+”. For the same compound, the visible growth (E. coli (WT); UV-4B 0.08 mg/ml) was “+”, the visible growth (E. coli (WT); UV-4B 0.16 mg/ml) was “+” and the visible growth (E. coli (WT); UV-4B 0.31 mg/ml) was “+”. For the same compound, the visible growth (E. coli (WT); UV-4B 0.63 mg/ml) was “+”, the visible growth (E. coli (WT); UV-4B 2.50 mg/ml) was “+” and the visible growth (E. coli (WT); UV-4B 5 mg/ml) was “−”. The visible growth (E. coli (WT); UV-4B 10 mg/ml) was “−”, the MBC (B. subtilis; UV-4B) was greater than 10 mg/mL and the “growth after re-inoculation on BHI agar” value (B. subtilis; UV-4B 2.50 mg/ml) was “+”. The “growth after re-inoculation on BHI agar” value (B. subtilis; UV-4B 5.00 mg/ml) was “+”, the “growth after re-inoculation on BHI agar” value (B. subtilis; UV-4B 10 mg/ml) was “+” and the MBC (P. aeruginosa 4858; UV-4B) was greater than 20 mg/mL. For the same compound, the “growth after re-inoculation on BHI agar” value (P. aeruginosa 4858; UV-4B 2.50 mg/ml) was “+”, the “growth after re-inoculation on BHI agar” value (P. aeruginosa 4858; UV-4B 5.00 mg/ml) was “+” and the “growth after re-inoculation on BHI agar” value (P. aeruginosa 4858; UV-4B 10 mg/ml) was “+”. The “growth after re-inoculation on BHI agar” value (P. aeruginosa 4858; UV-4B 20 mg/ml) was “+”, the “growth after re-inoculation on BHI agar” value (S. aureus (8324-5); UV-4B 2.50 mg/ml) was “+” and the “growth after re-inoculation on BHI agar” value (S. aureus (8324-5); UV-4B 5.00 mg/ml) was “+”. For the same compound, the “growth after re-inoculation on BHI agar” value (S. aureus (8324-5); UV-4B 10 mg/ml) was “+”, the “growth after re-inoculation on BHI agar” value (S. aureus (8324-5); UV-4B 20 mg/ml) was “−” and the MBC (S. aureus (Col); UV-4B) was 2.5 mg/mL. For the same compound, the “growth after re-inoculation on BHI agar” value (S. aureus (Col); UV-4B 2.50 mg/ml) was “−”, the “growth after re-inoculation on BHI agar” value (S. aureus (Col); UV-4B 5.00 mg/ml) was “−” and the “growth after re-inoculation on BHI agar” value (S. aureus (Col); UV-4B 10 mg/ml) was “−”. For the same compound, the MBC (S. aureus (USA300) [2]; UV-4B) was greater than 20 mg/mL, the “growth after re-inoculation on BHI agar” value (S. aureus (USA300) [2]; UV-4B 2.50 mg/ml) was “+” and the “growth after re-inoculation on BHI agar” value (S. aureus (USA300) [2]; UV-4B 5.00 mg/ml) was “+”. The “growth after re-inoculation on BHI agar” value (S. aureus (USA300) [2]; UV-4B 10 mg/ml) was “+”, the “growth after re-inoculation on BHI agar” value (S. aureus (USA300) [2]; UV-4B 20 mg/ml) was “+” and the MBC (S. aureus) was 20 mg/mL. For the same compound, the survival [3] was 80% and the “concentration allowing inhibition of alpha toxin production” value [4] was “higher than 2.5 mg/ml”.
